From publication PMC12376627 (2025)

Legend:
[1] = system: Histamine aptamer (DNA, aptamer) AGCTCCAGAAGATAAATTACAGGGAACGTGTTGGTTGCGGTTCTTCCGATCTGCTGTGTTCTCTATCTGTGCCATGCAACTAGGATACTATGACCCCGG; assay: CNT FET sensor array; conditions: PC12 culture medium; highest concentration tested 10 nM
[2] = system: Serotonin pH-sensitive aptamer (DNA, aptamer) CGACTGGTAGGCAGATAGGGGAAGCTGATTCGATGCGTGGGTCGTTTCGACCTTTCCAGC; assay: CNT FET; conditions: 10 nM target; released at acidic pH
[3] = system: Dopamine aptamer (DNA, aptamer) CGACGCCAGTTTGAAGGTTCGTTCGCAGGTGTGGAGTGACGTCG; assay: CNT FET sensor array; conditions: PC12 culture medium; highest concentration tested 10 nM
[4] = system: Serotonin aptamer (DNA, aptamer) CGACTGGTAGGCAGATAGGGGAAGCTGATTCGATGCGTGGGTCG; assay: SPR
[5] = system: Glutamate aptamer (DNA, aptamer) GCATCAGTCCACTCGTGAGGTCGACTGATGAGGCTCGAT; assay: CNT FET sensor array; conditions: PC12 culture medium; highest concentration tested 10 nM
[6] = system: Histamine pH-sensitive aptamer (DNA, aptamer) AGCTCCAGAAGATAAATTACAGGGAACGTGTTGGTTGCGGTTCTTCCGATCTGCTGTGTTCTCTATCTGTGCCATGCAACTAGGATACTATGACCCCGGTTTCCGGGGTTTTTGGGGCC; assay: CNT FET; conditions: 10 nM target; released at acidic pH
[7] = system: Histamine aptamer (DNA, aptamer) AGCTCCAGAAGATAAATTACAGGGAACGTGTTGGTTGCGGTTCTTCCGATCTGCTGTGTTCTCTATCTGTGCCATGCAACTAGGATACTATGACCCCGG; assay: SPR
[8] = system: Serotonin aptamer (DNA, aptamer) CGACTGGTAGGCAGATAGGGGAAGCTGATTCGATGCGTGGGTCG; assay: CNT FET sensor array; conditions: PC12 culture medium; highest concentration tested 10 nM
[9] = system: Dopamine pH-sensitive aptamer (DNA, aptamer) CGACGCCAGTTTGAAGGTTCGTTCGCAGGTGTGGAGTGACGTCGTTTCGACGCTTTAGCAGC; assay: CNT FET; conditions: 0.1x PBS (1x: 137 mM NaCl, 2.7 mM KCl); pH 7.4; 10 nM dopamine; released at acidic pH
[10] = system: Dopamine aptamer (DNA, aptamer) CGACGCCAGTTTGAAGGTTCGTTCGCAGGTGTGGAGTGACGTCG; assay: SPR
[11] = system: Glutamate pH-sensitive aptamer (DNA, aptamer) GCATCAGTCCACTCGTGAGGTCGACTGATGAGGCTCGATTTTATCGATTTAGCTA; assay: CNT FET; conditions: 10 nM target; released at acidic pH
[12] = system: Glutamate aptamer (DNA, aptamer) GCATCAGTCCACTCGTGAGGTCGACTGATGAGGCTCGAT; assay: SPR

binding [1] | binding [2] | binding [3] | Kd [4] [µM] | binding [5] | binding [6] | Kd [7] [µM] | binding [8] | binding [9] | Kd [10] [µM] | binding [11] | Kd [12] [µM] | Structure (SMILES)
no | yes | no | 0.0105 | no | – | – | – | – | – | – | – | NCCc1c[nH]c2ccc(O)cc12
– | – | no | – | no | yes | 0.015 | no | – | – | – | – | NCCc1c[nH]cn1
no | – | – | – | no | – | – | no | yes | 0.02 | – | – | NCCc1ccc(O)c(O)c1
no | – | no | – | – | – | – | no | – | – | yes | 0.293 | N[C@@H](CCC(=O)O)C(=O)O
